Active and inactive are the calls of the source.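 How the source made its calls: active means minimum cell viability of 80% or lower across the dose range, counted as toxic; inactive means minimum cell viability above 80%.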
Assay: viability loss in fusion assay cells – cell-based, MAGI and MAGI-HeLa co-culture, cytotoxicity control for HIV-1 fusion inhibitor project, dose response (AID 2286);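 further: cells exposed to compound for at least 64 h before ATP readout; 100% = median of DMSO vehicle wells with no ATP signal meaning 0%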
Settings: MAGI-CCR5 cells viability, CellTiter-Glo ATP luminescence; for minimum viability: measured here: MAGI minimum viability across doses
[1] = MAGI-HeLa co-culture viability, at 50 µM, stronger effect = lower value
[2] = at 3.13 µM, stronger effect = lower value
[3] = at 12.5 µM, stronger effect = lower value
[4] = at 1.56 µM, stronger effect = lower value
[5] = at 6.25 µM, stronger effect = lower value

## CCN1C(=O)/C(=C\c2ccc(-c3ccc([N+](=O)[O-])cc3OC)o2)SC1=Nc1cccc(C(=O)O)c1
[1]
  viability: 106%
At 50 µM (top of the series)
  viability: 88.3% (inactive)
[2]
  minimum viability: 87.5%

## O=C(O)CN1C(=O)/C(=C\c2cccc(OCc3ccc(Cl)cc3Cl)c2)SC1=S
[1]
  viability: 126%
At 50 µM (top of the series)
  viability: 95.6% (inactive)
[3]
  minimum viability: 80.7%

## O=C(O)c1[nH]c2ccccc2c1C(c1cc(Cl)cc([N+](=O)[O-])c1O)c1c(C(=O)O)[nH]c2ccccc12
[1]
  viability: 96.1%
At 50 µM (top of the series)
  viability: 99.1% (inactive)
[3]
  minimum viability: 93.4%

## COc1cc(OC)c2c(O)c3c(c(-c4c5c(c(O)c6c(OC)cc(OC)cc46)CO[C@@H](C)[C@H]5O)c2c1)[C@H](O)[C@H](C)OC3
[1]
  viability: 102%
At 50 µM (top of the series)
  viability: 103% (inactive)
[3]
  minimum viability: 88.2%

## COC1C(OC(=O)c2ccc(C)[nH]2)C(O)C(Oc2ccc3c(O)c(NC(=O)c4ccc(O)c(CC=C(C)C)c4)c(=O)oc3c2Cl)OC1(C)C (stereo unspecified)
[1]
  viability: 111%
At 50 µM (top of the series)
  viability: 81.8% (inactive)
At 50 µM, stronger effect = lower value
  minimum viability: 81.8%

## CC(C)c1ccc(OCC(=O)Nc2cccc(C(=O)Nc3ccccc3C(=O)O)c2)cc1
[1]
  viability: 96.4%
At 50 µM (top of the series)
  viability: 84% (inactive)
At 50 µM, stronger effect = lower value
  minimum viability: 84%

## C=CCOc1ccc(C(c2c(C(=O)O)[nH]c3ccccc23)c2c(C(=O)O)[nH]c3ccccc23)cc1
[1]
  viability: 89%
At 50 µM (top of the series)
  viability: 91.1% (inactive)
At 25 µM, stronger effect = lower value
  minimum viability: 85.9%

## COc1ccc(C(=O)COC(=O)c2ccccc2NS(=O)(=O)c2ccc(O)c([N+](=O)[O-])c2)cc1
[1]
  viability: 96%
At 50 µM (top of the series)
  viability: 83.3% (inactive)
At 50 µM, stronger effect = lower value
  minimum viability: 83.3%

## O=C(O)CSc1cc(C(=O)c2ccccc2O)cn2c(=O)c3c4c(sc3nc12)CCCC4
[1]
  viability: 114%
At 50 µM (top of the series)
  viability: 93.2% (inactive)
[3]
  minimum viability: 92.1%

## N#Cc1c(-c2ccccc2)nc(SCC(=O)N2c3ccccc3Sc3ccccc32)[nH]c1=O
[1]
  viability: 103%
At 50 µM (top of the series)
  viability: 85.5% (inactive)
[4]
  minimum viability: 83.6%

## CC(c1ccccc1)N1C(=O)c2ccc(C(=O)Nc3ccccc3C(=O)O)cc2C1=O (stereo unspecified)
[1]
  viability: 111%
At 50 µM (top of the series)
  viability: 100% (inactive)
At 25 µM, stronger effect = lower value
  minimum viability: 85.5%

## CCCOc1ccc(C(=O)NNC(=S)NC(=O)c2cc(-c3ccc(Cl)cc3)nc3ccccc23)cc1
[1]
  viability: 89.5%
At 50 µM (top of the series)
  viability: 98% (inactive)
[2]
  minimum viability: 87.2%

## O=C(O)c1[nH]c2ccccc2c1C(c1ccccc1)c1c(C(=O)O)[nH]c2ccccc12
[1]
  viability: 93.2%
At 50 µM (top of the series)
  viability: 86% (inactive)
[3]
  minimum viability: 81.8%

## COc1cc(/C=C2/C(=N)N3C(=NC2=O)SN=C3S(C)(=O)=O)ccc1OS(=O)(=O)c1ccccc1
[1]
  viability: 94.8%
At 50 µM (top of the series)
  viability: 87% (inactive)
At 25 µM, stronger effect = lower value
  minimum viability: 84.7%

## CC(c1ccccc1)N1C(=O)c2ccc(C(=O)Nc3ccc(Br)cc3C(=O)O)cc2C1=O (stereo unspecified)
[1]
  viability: 118%
At 50 µM (top of the series)
  viability: 96.8% (inactive)
[2]
  minimum viability: 86.6%

## O=C(O)CCCN1C(=O)/C(=C/c2ccc(-c3nc4ccccc4s3)o2)SC1=S
[1]
  viability: 99.7%
At 50 µM (top of the series)
  viability: 92.1% (inactive)
At 0.1 µM, stronger effect = lower value
  minimum viability: 87.2%

## COc1cc(/C=C2/C(=O)NN(c3ccc(Cl)cc3)C2=O)ccc1OC(=O)c1ccco1
[1]
  viability: 115%
At 50 µM (top of the series)
  viability: 96.4% (inactive)
At 50 µM, stronger effect = lower value
  minimum viability: 96.4%

## CSc1ccc(C(c2c(C(=O)O)[nH]c3ccccc23)c2c(C(=O)O)[nH]c3ccccc23)cc1
[1]
  viability: 89.8%
At 50 µM (top of the series)
  viability: 92.8% (inactive)
[5]
  minimum viability: 90.5%

## COc1cc(/C=N/Nc2ccc(Cl)c(C(=O)O)c2)ccc1OC(=O)c1ccccc1F
[1]
  viability: 105%
At 50 µM (top of the series)
  viability: 103% (inactive)
[2]
  minimum viability: 95.8%

## CC(C)CS(=O)(=O)C1=NN2C(=N)/C(=C\c3ccc(OC(=O)c4ccco4)cc3)C(=O)N=C2S1
[1]
  viability: 104%
At 50 µM (top of the series)
  viability: 96.6% (inactive)
[3]
  minimum viability: 85.6%

## O=C(O)COc1ccc(/C=N/NC(=O)c2ccc(-c3csc(Nc4ccc(Cl)cc4)n3)cc2)cc1
[1]
  viability: 96.5%
At 50 µM (top of the series)
  viability: 96.8% (inactive)
At 25 µM, stronger effect = lower value
  minimum viability: 83.4%

## CC(C)CS(=O)(=O)C1=NSC2=NC(=O)/C(=C\c3ccc(OC(=O)c4ccco4)cc3)C(=N)N21
[1]
  viability: 104%
At 50 µM (top of the series)
  viability: 95.1% (inactive)
[5]
  minimum viability: 85.3%

## O=C(O)CSc1cc(C(=O)c2cc(F)ccc2O)cn2c(=O)c3c(-c4ccccc4)csc3nc12
[1]
  viability: 88%
At 50 µM, stronger effect = lower value
  minimum viability: 56.4%

## Cc1cc(Cl)ccc1OC(C)C(=O)Nc1ccc(S(=O)(=O)Nc2cnc3ccccc3n2)cc1 (stereo unspecified)
[1]
  viability: 89.2%
At 50 µM, stronger effect = lower value
  minimum viability: 72.9%

## COc1ccc(-c2nn(-c3ccccc3)cc2/C=C\C(=O)Nc2ccc(C(=O)O)cc2)cc1
[1]
  viability: 93.2%
At 50 µM, stronger effect = lower value
  minimum viability: 73%

## CCOC(=O)C1=C(C)N=c2s/c(=C\c3ccc(OCC(=O)O)cc3)c(=O)n2C1c1ccc(OC(C)C)cc1 (stereo unspecified)
[1]
  viability: 105%
At 50 µM, stronger effect = lower value
  minimum viability: 65.8%

## Cc1cn2c(N)c(C=C3C=C(Cl)C(=O)C(Cl)=C3)c(=O)nc2s1
[1]
  viability: 105%
At 50 µM (top of the series)
  viability: 83.9% (inactive)
At 25 µM, stronger effect = lower value
  minimum viability: 81.8%

## COc1cccc(C2C3=C(N=c4s/c(=C\c5ccc(OCC(=O)O)cc5)c(=O)n42)c2ccccc2CC3)c1 (stereo unspecified)
[1]
  viability: 103%
At 50 µM (top of the series)
  viability: 90.2% (inactive)
[3]
  minimum viability: 85%

## CCCCCC#CCC#CCC#CCC#CCCCC(=O)O
[1]
  viability: 119%
At 50 µM (top of the series)
  viability: 94.8% (inactive)
[2]
  minimum viability: 89.9%

## O=C(O)c1cc(N2N=C(C(F)(F)F)/C(=C/C=C/c3ccco3)C2=O)ccc1Cl
[1]
  viability: 120%
At 50 µM (top of the series)
  viability: 92.8% (inactive)
[3]
  minimum viability: 84.9%

## O=C(O)c1cc(NC(=O)c2ccc(Br)cc2)cc(NC(=O)c2ccc(Br)cc2)c1
[1]
  viability: 118%
At 50 µM (top of the series)
  viability: 103% (inactive)
[2]
  minimum viability: 99.1%

## N#Cc1c(-c2ccccc2)nc(SCc2cccc(C(F)(F)F)c2)[nH]c1=O
[1]
  viability: 115%
At 50 µM (top of the series)
  viability: 82.1% (inactive)
At 50 µM, stronger effect = lower value
  minimum viability: 82.1%

## COc1ccc(-c2cc(-c3ccc(Cl)cc3)c(C#N)c(SCC(=O)O)n2)cc1
[1]
  viability: 96.4%
At 50 µM (top of the series)
  viability: 82.1% (inactive)
At 50 µM, stronger effect = lower value
  minimum viability: 82.1%

## Cc1ccc(-c2cc(C(=O)Nc3ccc(S(=O)(=O)Nc4onc(C)c4C)cc3)c3ccccc3n2)cc1
[1]
  viability: 89.9%
At 50 µM (top of the series)
  viability: 98.7% (inactive)
[2]
  minimum viability: 86%

## O=C(O)c1cccc(N/N=C/c2cc(Br)cc(Br)c2O)c1
[1]
  viability: 132%
At 50 µM (top of the series)
  viability: 127% (inactive)
[2]
  minimum viability: 90.9%

## O=C(O)COc1ccc(Br)cc1C(c1c(C(=O)O)[nH]c2ccccc12)c1c(C(=O)O)[nH]c2ccccc12
[1]
  viability: 95.6%
At 50 µM (top of the series)
  viability: 91.8% (inactive)
At 25 µM, stronger effect = lower value
  minimum viability: 88%

## CCOc1ccc(NC(=NCc2ccc3c(c2)OCO3)SC2CC(=O)N(c3ccc(C(=O)O)cc3)C2=O)cc1 (stereo unspecified)
[1]
  viability: 81.3%
At 25 µM (top of the series)
  viability: 84.3% (inactive)
At 25 µM, stronger effect = lower value
  minimum viability: 84.3%

## Cc1c(CCC(=O)O)c(=O)oc2c(C)c3occ(-c4ccc(Br)cc4)c3cc12
[1]
  viability: 97.7%
[3]
  minimum viability: 72.5%

## Cc1cc(/C=c2\sc3nc4ccccc4n3c2=O)c(C)n1-c1ccc(C(=O)O)cc1
[1]
  viability: 89%
At 50 µM, stronger effect = lower value
  minimum viability: 59.4%

## O=c1/c(=C\c2cc([N+](=O)[O-])cc([N+](=O)[O-])c2O)sc2nc3ccccc3n12
[1]
  viability: 115%
At 50 µM (top of the series)
  viability: 104% (inactive)
[5]
  minimum viability: 97.5%

## CC(C)S(=O)(=O)C1=NSC2=NC(=O)/C(=C\c3ccc(OC(=O)c4ccco4)cc3)C(=N)N21
[1]
  viability: 100%
At 50 µM (top of the series)
  viability: 103% (inactive)
[4]
  minimum viability: 84.2%

## COc1cc(/C=C2/C(=O)NN(c3ccc(C)c(Cl)c3)C2=O)cc([N+](=O)[O-])c1O
[1]
  viability: 103%
At 50 µM (top of the series)
  viability: 107% (inactive)
[4]
  minimum viability: 91.2%

## O=C(Nc1ccc(Br)cc1C(=O)O)c1ccc2c(c1)C(=O)N(Cc1ccccc1)C2=O
[1]
  viability: 101%
At 50 µM (top of the series)
  viability: 105% (inactive)
[4]
  minimum viability: 82.6%

## Cc1ccc(/C=C2\SC(=S)N(CCCC(=O)Nc3ccccc3C(=O)O)C2=O)cc1
[1]
  viability: 127%
At 50 µM, stronger effect = lower value
  minimum viability: 63.9%

## O=C(O)/C(CC(=O)c1ccc(Cl)cc1)=N/Nc1ccc([N+](=O)[O-])cc1[N+](=O)[O-]
[1]
  viability: 114%
At 50 µM (top of the series)
  viability: 84% (inactive)
At 50 µM, stronger effect = lower value
  minimum viability: 84%

## CCOc1cc(/C=N/Nc2cccc(C(=O)O)c2)ccc1OC(=O)c1ccccc1
[1]
  viability: 110%
At 50 µM (top of the series)
  viability: 95.7% (inactive)
[2]
  minimum viability: 93.3%

## O=C(CCN1C(=O)/C(=C\c2ccccc2F)SC1=S)Nc1ccc(C(=O)O)c(O)c1
[1]
  viability: 114%
At 50 µM (top of the series)
  viability: 93.9% (inactive)
[2]
  minimum viability: 85.5%

## N#Cc1c(-c2ccccc2)nc(SCC(=O)Nc2ccc(OC(F)(F)Cl)cc2)[nH]c1=O
[1]
  viability: 102%
At 50 µM (top of the series)
  viability: 96.6% (inactive)
At 25 µM, stronger effect = lower value
  minimum viability: 84.9%

## CCOc1cc(/C=N/NC(=O)c2ccc(-c3csc(Nc4ccc(C)cc4)n3)cc2)ccc1OCC(=O)O
[1]
  viability: 92.6%
At 50 µM (top of the series)
  viability: 90.2% (inactive)
[3]
  minimum viability: 83.3%

## O=C(O)c1cc(-c2ccc(/C=N/Nc3ccc(Cl)cc3)o2)ccc1Cl
[1]
  viability: 87.3%
At 50 µM, stronger effect = lower value
  minimum viability: 62%

## Cc1ccc(S(=O)(=O)Oc2ccc(/C=C3/C(=N)N4C(=NC3=O)SN=C4S(C)(=O)=O)cc2)cc1
[1]
  viability: 104%
At 50 µM, stronger effect = lower value
  minimum viability: 78.9%

## CC(C)(C)c1cc(-c2csc(Nc3ccccc3)[n+]2Cc2ccc(C(=O)O)cc2)cc(C(C)(C)C)c1O
[1]
  viability: 96.4%
At 50 µM, stronger effect = lower value
  minimum viability: 72.2%

— PubChem BioAssay AID2286 (Southern Research Specialized Biocontainment Screening …, 2010)
